{"source": "the supplement of paper PMC10307832", "test_in_all_cases": "relative viability (nuclei count vs DMSO), 5 days (fraction); higher = more cells survive", "key": {"SK-MES-1": {"tested_on": "SK-MES-1", "summary_of_the_method": "(§1)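 One day after seeding in 1536-well plates, lung cancer cell lines were dosed by pin tool. Dosing was either single-drug or a fixed anchor-drug dose plus five library-drug doses (not always all listed) in √10 steps. After 5 days, nuclei were stained in one fix-and-stain step and counted on 4× images, and relative viability is the nuclei count of treated wells over that of vehicle wells, given as the median of duplicate plates.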"}, "NCI-H2347": {"tested_on": "NCI-H2347", "summary_of_the_method": "as §1"}, "NCI-H441": {"tested_on": "NCI-H441", "summary_of_the_method": "as §1"}, "NCI-H1651": {"tested_on": "NCI-H1651", "summary_of_the_method": "as §1"}, "NCI-H727": {"tested_on": "NCI-H727", "summary_of_the_method": "as §1"}, "NCI-H322M": {"tested_on": "NCI-H322M", "summary_of_the_method": "as §1"}, "NCI-H3122": {"tested_on": "NCI-H3122", "summary_of_the_method": "as §1"}, "RERF-LC-KJ": {"tested_on": "RERF-LC-KJ", "summary_of_the_method": "as §1"}, "NCI-H596": {"tested_on": "NCI-H596", "summary_of_the_method": "as §1"}, "PC-14": {"tested_on": "PC-14", "summary_of_the_method": "as §1"}, "NCI-H520": {"tested_on": "NCI-H520", "summary_of_the_method": "as §1"}, "NCI-H1355": {"tested_on": "NCI-H1355", "summary_of_the_method": "as §1"}, "NCI-H1915": {"tested_on": "NCI-H1915", "summary_of_the_method": "as §1"}, "NCI-H1755": {"tested_on": "NCI-H1755", "summary_of_the_method": "as §1"}, "LXF-289": {"tested_on": "LXF-289", "summary_of_the_method": "as §1"}, "NCI-H1792": {"tested_on": "NCI-H1792", "summary_of_the_method": "as §1"}, "NCI-H460": {"tested_on": "NCI-H460", "summary_of_the_method": "as §1"}}, "data": [{"smiles": "CCN(CC)CCCCNc1ncc2cc(-c3cc(OC)cc(OC)c3)c(NC(=O)NC(C)(C)C)nc2n1", "note": "+ CC1(C)CCC(c2ccc(Cl)cc2)=C(CN2CCN(c3ccc(C(=O)NS(=O)(=O)c4ccc(N[C@H](CCN5CCOCC5)CSc5ccccc5)c(S(=O)(=O)C(F)(F)F)c4)cc3)CC2)C1 [Navitoclax] (partner 0.5 µM)", "values": [{"measurement": "relative viability", "setting": "SK-MES-1; first compound 0.01 µM", "result": 1.27}, {"measurement": "relative viability", "setting": "SK-MES-1; first compound 0.03162 µM", "result": 1.37}, {"measurement": "relative viability", "setting": "SK-MES-1; first compound 0.1 µM", "result": 1.6}, {"measurement": "relative viability", "setting": "SK-MES-1; first compound 0.3162 µM", "result": 1.36}, {"measurement": "relative viability", "setting": "SK-MES-1; first compound 1 µM", "result": 1.22}, {"measurement": "relative viability", "setting": "NCI-H2347; first compound 0.01 µM", "result": 0.817}, {"measurement": "relative viability", "setting": "NCI-H2347; first compound 0.03162 µM", "result": 0.823}, {"measurement": "relative viability", "setting": "NCI-H2347; first compound 0.1 µM", "result": 0.762}, {"measurement": "relative viability", "setting": "NCI-H2347; first compound 0.3162 µM", "result": 0.833}, {"measurement": "relative viability", "setting": "NCI-H2347; first compound 1 µM", "result": 0.676}, {"measurement": "relative viability", "setting": "NCI-H441; first compound 0.01 µM", "result": 0.547}, {"measurement": "relative viability", "setting": "NCI-H441; first compound 0.03162 µM", "result": 0.714}, {"measurement": "relative viability", "setting": "NCI-H441; first compound 0.1 µM", "result": 1.2}, {"measurement": "relative viability", "setting": "NCI-H441; first compound 0.3162 µM", "result": 0.827}, {"measurement": "relative viability", "setting": "NCI-H441; first compound 1 µM", "result": 0.618}, {"measurement": "relative viability", "setting": "NCI-H1651; first compound 0.01 µM", "result": 0.983}, {"measurement": "relative viability", "setting": "NCI-H1651; first compound 0.03162 µM", "result": 1.09}, {"measurement": "relative viability", "setting": "NCI-H1651; first compound 0.1 µM", "result": 1.25}, {"measurement": "relative viability", "setting": "NCI-H1651; first compound 0.3162 µM", "result": 1.23}, {"measurement": "relative viability", "setting": "NCI-H1651; first compound 1 µM", "result": 1.03}, {"measurement": "relative viability", "setting": "NCI-H727; first compound 0.01 µM", "result": 0.443}, {"measurement": "relative viability", "setting": "NCI-H727; first compound 0.03162 µM", "result": 0.336}, {"measurement": "relative viability", "setting": "NCI-H727; first compound 0.1 µM", "result": 0.428}, {"measurement": "relative viability", "setting": "NCI-H727; first compound 0.3162 µM", "result": 0.454}, {"measurement": "relative viability", "setting": "NCI-H727; first compound 1 µM", "result": 0.387}, {"measurement": "relative viability", "setting": "NCI-H322M; first compound 0.01 µM", "result": 1.26}, {"measurement": "relative viability", "setting": "NCI-H322M; first compound 0.03162 µM", "result": 1.29}, {"measurement": "relative viability", "setting": "NCI-H322M; first compound 0.1 µM", "result": 1.23}, {"measurement": "relative viability", "setting": "NCI-H322M; first compound 0.3162 µM", "result": 1.22}, {"measurement": "relative viability", "setting": "NCI-H322M; first compound 1 µM", "result": 1.2}, {"measurement": "relative viability", "setting": "NCI-H3122; first compound 0.01 µM", "result": 1.02}, {"measurement": "relative viability", "setting": "NCI-H3122; first compound 0.03162 µM", "result": 1.06}, {"measurement": "relative viability", "setting": "NCI-H3122; first compound 0.1 µM", "result": 1.06}, {"measurement": "relative viability", "setting": "NCI-H3122; first compound 0.3162 µM", "result": 1.03}, {"measurement": "relative viability", "setting": "NCI-H3122; first compound 1 µM", "result": 1.07}, {"measurement": "relative viability", "setting": "RERF-LC-KJ; first compound 0.01 µM", "result": 0.996}, {"measurement": "relative viability", "setting": "RERF-LC-KJ; first compound 0.03162 µM", "result": 0.851}, {"measurement": "relative viability", "setting": "RERF-LC-KJ; first compound 0.1 µM", "result": 0.925}, {"measurement": "relative viability", "setting": "RERF-LC-KJ; first compound 0.3162 µM", "result": 1.09}, {"measurement": "relative viability", "setting": "RERF-LC-KJ; first compound 1 µM", "result": 0.997}, {"measurement": "relative viability", "setting": "NCI-H596; first compound 0.01 µM", "result": 0.912}, {"measurement": "relative viability", "setting": "NCI-H596; first compound 0.03162 µM", "result": 1.02}, {"measurement": "relative viability", "setting": "NCI-H596; first compound 0.1 µM", "result": 0.919}, {"measurement": "relative viability", "setting": "NCI-H596; first compound 0.3162 µM", "result": 0.797}, {"measurement": "relative viability", "setting": "NCI-H596; first compound 1 µM", "result": 0.656}, {"measurement": "relative viability", "setting": "PC-14; first compound 0.01 µM", "result": 1.11}, {"measurement": "relative viability", "setting": "PC-14; first compound 0.03162 µM", "result": 1.06}, {"measurement": "relative viability", "setting": "PC-14; first compound 0.1 µM", "result": 1.15}, {"measurement": "relative viability", "setting": "PC-14; first compound 0.3162 µM", "result": 1.01}, {"measurement": "relative viability", "setting": "PC-14; first compound 1 µM", "result": 0.985}, {"measurement": "relative viability", "setting": "NCI-H520; first compound 0.01 µM", "result": 1.08}, {"measurement": "relative viability", "setting": "NCI-H520; first compound 0.03162 µM", "result": 1.08}, {"measurement": "relative viability", "setting": "NCI-H520; first compound 0.1 µM", "result": 1.31}, {"measurement": "relative viability", "setting": "NCI-H520; first compound 0.3162 µM", "result": 1.09}, {"measurement": "relative viability", "setting": "NCI-H520; first compound 1 µM", "result": 0.419}, {"measurement": "relative viability", "setting": "NCI-H1355; first compound 0.01 µM", "result": 0.906}, {"measurement": "relative viability", "setting": "NCI-H1355; first compound 0.03162 µM", "result": 1.09}, {"measurement": "relative viability", "setting": "NCI-H1355; first compound 0.1 µM", "result": 0.991}, {"measurement": "relative viability", "setting": "NCI-H1355; first compound 0.3162 µM", "result": 1.02}, {"measurement": "relative viability", "setting": "NCI-H1355; first compound 1 µM", "result": 0.938}, {"measurement": "relative viability", "setting": "NCI-H1915; first compound 0.01 µM", "result": 0.826}, {"measurement": "relative viability", "setting": "NCI-H1915; first compound 0.03162 µM", "result": 0.795}, {"measurement": "relative viability", "setting": "NCI-H1915; first compound 0.1 µM", "result": 0.838}, {"measurement": "relative viability", "setting": "NCI-H1915; first compound 0.3162 µM", "result": 0.749}, {"measurement": "relative viability", "setting": "NCI-H1915; first compound 1 µM", "result": 0.805}, {"measurement": "relative viability", "setting": "NCI-H1755; first compound 0.01 µM", "result": 1.14}, {"measurement": "relative viability", "setting": "NCI-H1755; first compound 0.03162 µM", "result": 1.08}, {"measurement": "relative viability", "setting": "NCI-H1755; first compound 0.1 µM", "result": 1.07}, {"measurement": "relative viability", "setting": "NCI-H1755; first compound 0.3162 µM", "result": 1.09}, {"measurement": "relative viability", "setting": "NCI-H1755; first compound 1 µM", "result": 0.987}, {"measurement": "relative viability", "setting": "LXF-289; first compound 0.01 µM", "result": 1.02}, {"measurement": "relative viability", "setting": "LXF-289; first compound 0.03162 µM", "result": 0.968}, {"measurement": "relative viability", "setting": "LXF-289; first compound 0.1 µM", "result": 1.07}, {"measurement": "relative viability", "setting": "LXF-289; first compound 0.3162 µM", "result": 0.939}, {"measurement": "relative viability", "setting": "LXF-289; first compound 1 µM", "result": 0.834}, {"measurement": "relative viability", "setting": "NCI-H1792; first compound 0.01 µM", "result": 0.688}, {"measurement": "relative viability", "setting": "NCI-H1792; first compound 0.03162 µM", "result": 0.739}, {"measurement": "relative viability", "setting": "NCI-H1792; first compound 0.1 µM", "result": 0.712}, {"measurement": "relative viability", "setting": "NCI-H1792; first compound 0.3162 µM", "result": 1.49}, {"measurement": "relative viability", "setting": "NCI-H1792; first compound 1 µM", "result": 0.19}, {"measurement": "relative viability", "setting": "NCI-H460; first compound 0.01 µM", "result": 1.3}, {"measurement": "relative viability", "setting": "NCI-H460; first compound 0.03162 µM", "result": 1.18}, {"measurement": "relative viability", "setting": "NCI-H460; first compound 0.3162 µM", "result": 1.21}, {"measurement": "relative viability", "setting": "NCI-H460; first compound 1 µM", "result": 1.09}]}]}
